Experimental data from US20140072584A1, “NOVEL PHARMACEUTICAL USE OF BENZOIC ACID DERIVATIVES” (priority 2010, published 2014).

Columns and labels:
[1] = system: LEW-1W donor transplanted rat hearts; test: Heart transplantation model, LEW-1W rats as donor, LEW-1A as recipient, oral administration; format: in vivo; conditions: oral 500 mg/kg/day, four weeks; n=24
Description: a) Heart Transplantation Animal Model with LEW-1W Rats as Donor, LEW-1a as Recipient:
LEW-1W rats were used as donors; donors hearts after being isolated were preserved in saline at 0-4° C. […] The donor's aorta and the recipient's abdominal aorta were sutured up with 8-0 Prolene vascular threads, and the donor's pulmonary artery and the recipient's vena cava were sutured up with 8-0 Prolene vascular threads. When blood vessels were opened, the rat's heart would immediately resume beating, (please see Guillonneau C, Hill M, Hubert F X, Chiffoleau E, Hervé C, Xian-Liang Li, et al. CD40Ig treatment results in allograft acceptence mediated by CD8+CD45RClow T cells, IFN-γ and indoleamine 2,3 dioxygenase. Journal Clinical Investagtion. 2007; 117 (4): 1096-1106).
Observation parameters: after the abdomen was closed, palpation was used to check the beating of a transplanted rat heart, to determine graft survival period. That transplanted heart stops beating within 3 weeks was considered as having acute rejection, that transplanted heart stops beating after one month was considered as having chronic rejection, and that transplanted heart beats normally for more than three months was considered as having immune tolerance. […]

[2] = system: BN donor transplanted rat hearts; test: Heart transplantation model, BN rats as donor, LEW-1A rats as recipient, oral administration; format: in vivo; conditions: oral 500 mg/kg/day, four weeks; n=6
Description: b) Heart Transplantation Animal Model with BN Rats as Donor and LEW-1A Rats as Recipient:
BN rats were used as donors; donors hearts after being isolated were preserved in saline at 0-4° C. […] The donor's aorta and the recipient's abdominal aorta were sutured up with 8-0 Prolene vascular threads, and the donor's pulmonary artery and the recipient's vena cava were sutured up with 8-OProlene vascular threads. When blood vessels were opened, the rat's heart would immediately resume beating.
Observation parameters: after the abdomen was closed, palpation was used to check the beating of a transplanted rat heart, to determine graft survival period. That transplanted heart stops beating within 3 weeks was considered as having acute rejection, that transplanted heart stops beating after one month was considered as having chronic rejection, and that transplanted heart beats normally for more than three months was considered as having immune tolerance.
Experiment Methods: 12 rats from the experiment model established by method b) BN rats as donors and LEW-1A rats as recipients were used and divided into study and control groups, 6 rats for each group. […]

CD4+ effector cells = test: Mixed lymphocyte culture, CFSE proliferation of effector cells by flow cytometry; format: cell-based, rat; conditions: 4 days culture
Text: Experiment method: From bodies of untreated rats (LEW-1A rats in Example 1), splenocytes were extracted according to the splenocytes extraction method described in Section 2.2.1. Splenocytes were fluorescence-labeled for TCR, CD4 and CD25, and by flow cytometry cell sorter TCR+CD4+CD25−cells were collected as CD4+ effector cells. Splenocytes after the removal of T-lymphocytes (TCR+cells), B cell lymphocytes (CD45R+cells) and NK cells (3.2.3+cells) by immuno-magnetic beads, were marked using fluorescent antibodies for TCR, CD11c and CD123 (antibody concentration was 5-10 μg/ml). By flow cytometry cell sorter, TCR-CD11c−CD123+cells were collected as pDC, and TCR-CD11c+CD123−cells were collected as mDC.
Well separated CD4+ effector cells and pDC or mDC and defined regulatory cells, respectively in a proportion of 4/4/1 were added into a 96-well culture plate, 200 ul culture medium was added and they were cultured in a 5% CO2 incubator at 37 degrees Celsius for 4 days. During the cultivation, cinnamoyl anthranilic acid (1.2-150 μmol) or control DMSO solvent was added. Cells were stain labeled after the four days, and the proliferation of effector cells was analyzed by a flow cytometer.
CD4+ effector cells before the mixed culture were marked by living organism dye CFSE (10*6 cells/ml in 5 μM CFSE). Labeled CD4+ effector cells were added to a mixed lymphocyte cultivation test, were marked again using fluorescent antibodies (TCR, CD4) after four days, and then were analyzed by a flow cytometer (TCR+CD4+gate) for effector cell proliferation.
Cinnamoyl anthranilic acid was added in different concentrations (150 μM, 75 μM, 37.5 μM, 18.7 μM, 9.35 μM, 4.7 μM, 2.35 μM, 1.2 μM). Cell stain labeling was conducted after 4 days of the culture, and the proliferation of effector cells was analyzed by a flow cytometer.

[3] = after oral administration, cited from earlier work

COc1ccc(/C=C/C(=O)Nc2ccccc2C(=O)O)cc1OC [cinnamoyl anthranilic acid]
recipients overcame acute rejection [1]: 92%
recipients with long-term survival with a state of induced immune tolerance [1]: 42%
recipients overcame acute rejection [2]: 100%
recipients with long-term survival with a state of induced immune tolerance [2]: 50%
effect on proliferation of CD4 effector T cells (CFSE) (CD4+ effector cells; 37.5 μM to 9.35 μM): dose-dependent inhibitory effect
effect on activated CD4 effector cells at high concentrations (CD4+ effector cells; 150 μM and 75 μM): directly kill activated CD4 effector cells
effect on proliferation of CD4 effector cells at low concentration (CD4+ effector cells; below 4.7 μM): did not show the inhibitory effect
blood concentration at 48 h ([3]; 48 h): difficult to be detected
plasma half-life [3]: 5 to 8.6 h
time to peak plasma concentration [3]: 2 to 3 h
tissue distribution [3]: bronchial and lung have the highest concentration
